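Cultured in 96-well plates, cells were exposed to test compound for 48 hours across five concentrations. GI50 is the concentration that inhibits growth by half. Definition used: TGI = concentration required for complete inhibition of growth.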
Key:
Test in all cases: NCI-60 cell line screen, 48 h
[1] = test system: HCT-116 colon
[2] = test system: SF-539 CNS
[3] = test system: ACHN renal
[4] = test system: HT29 colon
[5] = test system: OVCAR-4 ovarian
[6] = test system: SK-MEL-2 melanoma
[7] = test system: MALME-3M melanoma
[8] = test system: PC-3 prostate
[9] = test system: DU-145 prostate
[10] = test system: NCI/ADR-RES ovarian

Structure (SMILES) | TGI [1] [µM] | TGI [2] [µM] | TGI [3] [µM] | TGI [4] [µM] | TGI [5] [µM] | TGI [6] [µM] | TGI [7] [µM] | GI50 [1] [µM] | GI50 [8] [µM] | TGI [8] [µM] | GI50 [9] [µM] | TGI [9] [µM] | GI50 [2] [µM] | GI50 [10] [µM] | TGI [10] [µM] | GI50 [3] [µM] | GI50 [4] [µM] | GI50 [5] [µM] | GI50 [6] [µM] | GI50 [7] [µM]
CCOc1ccc(NC(=O)/C(CC(=O)c2c[n+](=O)c3ccccc3n2[O-])=N\OCCCc2ccccc2)cc1 | > 100 | > 100 | > 100 | > 100 | > 100 | > 100 | > 100 |  |  |  |  |  |  |  |  |  |  |  |  | 
COc1ccc(-c2ccc(CC(=O)O)cc2)cc1OC | > 100 |  | > 100 | > 100 | > 100 | > 100 | > 100 |  |  |  |  |  |  |  |  |  |  |  |  | 
Cc1cccc(C)c1NC(=O)C(=O)Cc1nc2ccccc2s1 | > 100 | > 100 | > 100 | > 100 | > 100 | > 100 | > 100 |  |  |  |  |  |  |  |  |  |  |  |  | 
O=C1NC(O)n2c(=O)[nH]c(=O)n21 (stereo unspecified) | > 100 | > 100 | > 100 | > 100 | > 100 | > 100 |  |  |  |  |  |  |  |  |  |  |  |  |  | 
Cc1cc(Cl)ccc1NC(=O)CCCC(=O)C1C/C(=N/O)CC/C1=N\O (stereo unspecified) | > 100 | > 100 | > 100 | > 100 | > 100 | > 100 | > 100 |  |  |  |  |  |  |  |  |  |  |  |  | 
CC1=NN(c2cccc(Cl)c2)C(=O)/C1=C\c1cn(CC(O)CN2CCCCC2)c2ccccc12 (stereo unspecified) | 3.35 | 26.6 | 14.6 | 4.57 | 28.1 | 24.7 |  | 1.74 | 9.81 | 26.1 | 10.4 | 23.2 | 10.2 | 4.79 | 20.7 | 3.18 | 2.02 | 13.3 | 10.3 | 
COc1cc(C)c2c(c1)CN1CN2Cc2cc(OC)cc(C)c21 | > 100 | > 100 | > 100 | > 100 | > 100 | > 100 | > 100 |  |  |  |  |  |  |  |  |  |  |  |  | 
COC(=O)C1CC(c2ccc(OC)c(OC)c2)OC1=O (mixture of isomers) | > 100 | > 100 | > 100 | > 100 | > 100 |  | > 100 |  |  |  |  |  |  |  |  |  |  |  |  | 
O=C(Nc1sc2c(c1C(=O)O)CCCC2)c1ccco1 | > 50 | > 50 | > 50 |  |  | > 50 |  | 31 | 45.9 | > 50 | > 50 | > 50 | 47.5 |  |  | 14.1 |  |  | > 50 | 
CCCCCCCC/C=C/CCCCCCCC1=NC(C)(C)CN1C(C)(C)CO | 2.9 | 3.34 | 3.52 | 3.38 | 4.4 | 3.67 |  | 1.52 | 1.83 | 4.92 | 1.86 | 3.32 | 1.68 | 2.1 | 4.81 | 1.81 | 1.45 | 2.12 | 1.76 | 
COc1ccc(-c2ccc(C3CC(c4ccccc4)=NN3)o2)c([N+](=O)[O-])c1 (stereo unspecified) | > 100 | > 100 | > 100 | > 100 | > 100 |  |  | 33.5 | 37.3 | > 100 | 82.6 | > 100 | 64.7 | 33.9 | > 100 | 57.7 | 51.3 | 43.5 |  | 
Cc1nnc2n1N=C(c1ccccc1)C(c1ccccc1)S2 (stereo unspecified) | > 100 | 72.4 | > 100 | > 100 | > 100 | > 100 | > 100 |  |  |  |  |  |  |  |  |  |  |  |  | 
C1=CC(=P(c2ccccc2)(c2ccccc2)c2ccccc2)C=C1 |  | 29.1 | 28.2 | 23.7 | 31.5 | 30.3 | 17.4 |  |  |  |  |  |  |  |  |  |  |  |  | 
Cc1cccc(N2C(=O)/C(=C/C(Cl)=C/c3ccc([N+](=O)[O-])cc3)SC2=S)c1C | 3.08 | 6.76 | 2.75 | > 100 | > 100 | > 100 |  | 1.33 | 1.39 | 4.93 | 3.98 | > 100 | 2.37 | 2.97 | > 100 | 1.43 | 1.13 | 1.46 | 3.85 | 
O=c1c(Cc2ccc3c(c2)OCO3)nnc2sc(-c3cc(F)c(Cl)cc3Cl)nn12 | > 100 |  | > 100 | > 100 | > 100 |  | 85.3 | 23.5 | 35.4 | > 100 |  |  |  | 63.7 | > 100 | 53.8 | 35.2 | 59.2 |  | 24.7
CN(C)CCC(=O)Nc1ccc(-n2cc(-c3cccc(NC(=S)Nc4cccc(-c5cn(-c6ccc(NC(=O)CCN(C)C)cc6)nn5)c4)c3)nn2)cc1 | 40.4 | 78.2 | > 100 | > 100 | > 100 | > 100 |  | 12.7 | 85.9 | > 100 | > 100 | > 100 | 28.1 | > 100 | > 100 | > 100 | 6.03 | 35.4 | 39.5 | 
Cc1cc2c(c(C(=O)O)c1C)-c1cccc(Cl)c1C2=O |  |  | > 100 | > 100 | > 100 | > 100 | > 100 |  |  |  |  |  |  |  |  |  |  |  |  | 
COc1ccc(-c2nc3ccccc3s2)cc1OC | > 100 | > 100 | > 100 | > 100 | > 100 | > 100 |  |  |  | > 100 |  |  |  |  | > 100 |  |  |  |  | 
c1cnc2c(c1)-n1cccc1C1(CCCCC1)NN2 | > 100 | > 100 | > 100 | > 100 | > 100 | > 100 | > 100 |  |  |  |  |  |  |  |  |  |  |  |  | 
CCCC(=O)O[C@]1(C)CC[C@@H]2[C@H]3[C@@H]1[C@@H]1C[C@@](C)(O)[C@H](OC)CC[C@](C)(OC(=O)[C@@H]2C)[C@H]3O1 | > 100 | > 100 | > 100 | 69.7 | 50 | > 100 | 33.8 | 36.5 |  |  | 43.4 | > 100 | 71.7 | 67.1 | > 100 | 35.8 | 26.9 | 22.1 | 65.7 | 17.8
